Experiments:
Assay in all cases: Test D controlled growth environment herbicide test, pre- and postemergence
Assay type in all cases: in vivo
[1] = tested on: Russian thistle (Salsola kali)
How it was run: (§1)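 Species sown in silt loam and sprayed preemergence, or grown in peat-based medium to 2–18 cm (1- to 4-leaf stage) and sprayed postemergence, with compounds in non-phytotoxic solvent plus surfactant. Visual injury scored versus controls after 14–21 d in a controlled environment, 0 (no effect) to 100 (complete control).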

[2] = tested on: barley, winter (winter barley, Hordeum vulgare)
How it was run: as §1

[3] = tested on: bromegrass, downy (downy bromegrass, Bromus tectorum)
How it was run: as §1

[4] = tested on: buckwheat, wild (wild buckwheat, Polygonum convolvulus)
How it was run: as §1

[5] = tested on: canarygrass (Phalaris minor)
How it was run: as §1

[6] = tested on: chickweed (common chickweed, Stellaria media)
How it was run: as §1

[7] = tested on: field violet (Viola arvensis)
How it was run: as §1

[8] = tested on: galium (catchweed bedstraw, Galium aparine)
How it was run: as §1

kochia (Kochia scoparia) = tested on: kochia (Kochia scoparia)
How it was run: as §1

[9] = tested on: oat, wild (wild oat, Avena fatua)
How it was run: as §1

[10] = tested on: pigweed (Amaranthus retroflexus)
How it was run: as §1

[11] = tested on: radish, wild (wild radish, Raphanus raphanistrum)
How it was run: as §1

[12] = tested on: windgrass (Apera spica-venti)
How it was run: as §1

[13] = Postemergence, 31 g ai/ha, scale 0 to 100 (0 no effect, 100 complete control)
[14] = Postemergence, 125 g ai/ha, visual rating on scale 0 (no effect) to 100 (complete control), 14 to 21 d
[15] = Postemergence, 250 g ai/ha, scale 0 to 100 (0 no effect, 100 complete control)
[16] = Preemergence, 62 g ai/ha, scale 0 to 100 (0 no effect, 100 complete control)
[17] = Preemergence, 125 g ai/ha, scale 0 to 100 (0 no effect, 100 complete control)
[18] = Preemergence, 250 g ai/ha, scale 0 to 100 (0 no effect, 100 complete control)
[19] = postemergence, 62 g ai/ha, scale 0 to 100, 0 no effect, 100 complete control

COC(=O)Oc1c(C)nn(C)c(=O)c1-c1c(C)sc2c(C)cc(C)cc12 [Compound 81]
Russian Thistle plant response rating [1, 13]: 75 | Plant response rating, Russian Thistle [1, 14]: 90 | Plant response rating, Russian Thistle [1, 15]: 90 | Plant response rating (scale of 0 to 100), Russian Thistle ([1]; Preemergence, 31 g ai/ha): 0 | Plant response rating, Russian Thistle [1, 16]: 0 | Plant response rating, Russian Thistle [1, 17]: 15 | Plant response rating, Russian Thistle [1, 18]: 35 | Plant response rating, Russian Thistle [1, 19]: 85 | Barley, Winter plant response rating [2, 13]: 0 | Plant response rating, Barley, Winter [2, 14]: 0 | Plant response rating, Barley, Winter [2, 15]: 10 | Plant response rating (scale of 0 to 100), Barley, Winter ([2]; Preemergence, 31 g ai/ha): 0 | Plant response rating, Barley, Winter [2, 16]: 0 | Plant response rating, Barley, Winter [2, 17]: 45 | Plant response rating, Barley, Winter [2, 18]: 45 | Plant response rating, Barley, Winter [2, 19]: 0 | Bromegrass, Downy plant response rating [3, 13]: 15 | Plant response rating, Bromegrass, Downy [3, 14]: 65 | Plant response rating, Bromegrass, Downy [3, 15]: 75 | Plant response rating (scale of 0 to 100), Bromegrass, Downy ([3]; Preemergence, 31 g ai/ha): 20 | Plant response rating, Bromegrass, Downy [3, 16]: 45 | Plant response rating, Bromegrass, Downy [3, 17]: 15 | Plant response rating, Bromegrass, Downy [3, 18]: 75 | Plant response rating, Bromegrass, Downy [3, 19]: 35 | Buckwheat, Wild plant response rating [4, 13]: 100 | Plant response rating, Buckwheat, Wild [4, 14]: 100 | Plant response rating, Buckwheat, Wild [4, 15]: 100 | Plant response rating (scale of 0 to 100), Buckwheat, Wild ([4]; Preemergence, 31 g ai/ha): 15 | Plant response rating, Buckwheat, Wild [4, 16]: 15 | Plant response rating, Buckwheat, Wild [4, 17]: 0 | Plant response rating, Buckwheat, Wild [4, 18]: 15 | Plant response rating, Buckwheat, Wild [4, 19]: 100 | Canarygrass plant response rating [5, 13]: 75 | Plant response rating, Canarygrass [5, 14]: 95 | Plant response rating, Canarygrass [5, 15]: 100 | Plant response rating (scale of 0 to 100), Canarygrass ([5]; Preemergence, 31 g ai/ha): 75 | Plant response rating, Canarygrass [5, 16]: 65 | Plant response rating, Canarygrass [5, 17]: 95 | Plant response rating, Canarygrass [5, 18]: 100 | Plant response rating, Canarygrass [5, 19]: 85 | Chickweed plant response rating [6, 13]: 100 | Plant response rating, Chickweed [6, 14]: 100 | Plant response rating, Chickweed [6, 15]: 100 | Plant response rating (scale of 0 to 100), Chickweed ([6]; Preemergence, 31 g ai/ha): 95 | Plant response rating, Chickweed [6, 16]: 100 | Plant response rating, Chickweed [6, 17]: 100 | Plant response rating, Chickweed [6, 18]: 100 | Plant response rating, Chickweed [6, 19]: 100 | Field Violet plant response rating [7, 13]: 75 | Plant response rating, Field Violet [7, 14]: 100 | Plant response rating, Field Violet [7, 15]: 100 | Plant response rating (scale of 0 to 100), Field Violet ([7]; Preemergence, 31 g ai/ha): 75 | Plant response rating, Field Violet [7, 16]: 80 | Plant response rating, Field Violet [7, 17]: 100 | Plant response rating, Field Violet [7, 18]: 95 | Plant response rating, Field Violet [7, 19]: 85 | Galium plant response rating [8, 13]: 100 | Plant response rating, Galium [8, 14]: 100 | Plant response rating, Galium [8, 15]: 100 | Plant response rating (scale of 0 to 100), Galium ([8]; Preemergence, 31 g ai/ha): 25 | Plant response rating, Galium [8, 16]: 65 | Plant response rating, Galium [8, 17]: 85 | Plant response rating, Galium [8, 18]: 95 | Plant response rating, Galium [8, 19]: 100 | Kochia plant response rating (kochia (Kochia scoparia); [13]): 60 | Plant response rating, Kochia (kochia (Kochia scoparia); [14]): 90 | Plant response rating, Kochia (kochia (Kochia scoparia); [15]): 95 | Plant response rating (scale of 0 to 100), Kochia (kochia (Kochia scoparia); Preemergence, 31 g ai/ha): 0 | Plant response rating, Kochia (kochia (Kochia scoparia); [16]): 0 | Plant response rating, Kochia (kochia (Kochia scoparia); [17]): 25 | Plant response rating, Kochia (kochia (Kochia scoparia); [18]): 15 | Plant response rating, Kochia (kochia (Kochia scoparia); [19]): 85 | Oat, Wild plant response rating [9, 13]: 85 | Plant response rating, Oat, Wild [9, 14]: 95 | Plant response rating, Oat, Wild [9, 15]: 98 | Plant response rating (scale of 0 to 100), Oat, Wild ([9]; Preemergence, 31 g ai/ha): 85 | Plant response rating, Oat, Wild [9, 16]: 85 | Plant response rating, Oat, Wild [9, 17]: 85 | Plant response rating, Oat, Wild [9, 18]: 95 | Plant response rating, Oat, Wild [9, 19]: 90 | Pigweed plant response rating [10, 13]: 100 | Plant response rating, Pigweed [10, 14]: 100 | Plant response rating, Pigweed [10, 15]: 100 | Plant response rating (scale of 0 to 100), Pigweed ([10]; Preemergence, 31 g ai/ha): 95 | Plant response rating, Pigweed [10, 16]: 100 | Plant response rating, Pigweed [10, 17]: 100 | Plant response rating, Pigweed [10, 18]: 100 | Plant response rating, Pigweed [10, 19]: 100 | Radish, Wild plant response rating [11, 13]: 75 | Plant response rating, Radish, Wild [11, 14]: 95 | Plant response rating, Radish, Wild [11, 15]: 100 | Plant response rating (scale of 0 to 100), Radish, Wild ([11]; Preemergence, 31 g ai/ha): 0 | Plant response rating, Radish, Wild [11, 16]: 50 | Plant response rating, Radish, Wild [11, 19]: 90 | Windgrass plant response rating [12, 13]: 70 | Plant response rating, Windgrass [12, 14]: 90 | Plant response rating, Windgrass [12, 15]: 95 | Plant response rating (scale of 0 to 100), Windgrass ([12]; Preemergence, 31 g ai/ha): 60 | Plant response rating, Windgrass [12, 16]: 75 | Plant response rating, Windgrass [12, 17]: 90 | Plant response rating, Windgrass [12, 18]: 100 | Plant response rating, Windgrass [12, 19]: 80

— US10597388B2, “Pyridazinone herbicides” (FMC CORPORATION, priority 2014, dated 2020)
